Data on four molecules can be found in patent US10017520B2, “Myc modulators and uses thereof” (Massachusetts Institute of Technology, priority 2014, dated 2018).

The subject of one data set is Namalwa cells. Briefly: Cell viability, CELL TITER GLO assay (Promega), Namalwa cells. The format is cell-based. On the procedure: (§1) FIGS. 2A to 2E show exemplary results of cell viability assay of compound 1. […] Results were expressed as a mean+/−SEM (n=3). RLU: Relative Luminescence Units.
(§2) The effect of compound 1 on cell viability in several cancer cell lines were determined. The cancer cell lines employed in the assay included those corresponding to hematopoietic and solid tumors. Exemplary results are shown in FIGS. 2A to 2E, where viability was assessed by CELL TITER GLO assay (Promega). Compound 1 was also submitted in a blinded fashion to the National Cancer Institute's CTD cancer cell line profiling pipeline, which enabled sensitivity profiling in about 800 cancer cell lines with annotation of specific genomic lesions that impart on human cancers (FIGS. 3A to 3B). […] The effects of other compounds described herein on cell viability in several cancer cell lines were also determined, and exemplary results are shown in Table 2, where viability was assessed by CELL TITER GLO assay (Promega).

Another data set relates to Eu-Myc Arf −/− cells. The experiment in a line: Cell viability, CELL TITER GLO assay (Promega), Eu-Myc Arf −/− cells. It counts as cell-based. On the procedure:
as §2

Data set [1] relates to c-Myc. Briefly: c-Myc reporter gene assay (Qiagen) in HEK293T cells. It counts as cell-based. As to conditions: Homo sapiens, HEK-293T, 16 h, treatment 16 hours, Firefly/Renilla ratio. On the procedure:
Compound 1's activity against Myc was measured as a Firefly/Renilla ratio, using the Myc reporter assay (Qiagen) in HEK293T cells after treatment with compound 1 for 16 hours. Results are expressed as a mean+/−SD (n=3). SD: standard deviation.
Select compounds described herein that were SMM assay positives were evaluated in several versions of a c-Myc reporter gene assay, including a commercial assay from Qiagen. The compounds' activities against c-Myc were measured as a Firefly/Renilla ratio, using the Myc reporter assay (Qiagen) in HEK293T cells after treatment with the compounds for 16 hours.

For another data set, the system named is NCIH1975 cells. The experiment in a line: Cell viability, CELL TITER GLO assay (Promega), NCIH1975 cells. The format is cell-based. As to conditions: Homo sapiens, NCI-H1975. On the procedure: as §1, §2
(In general: ATP-based viability assays read luminescence as a measure of living cells.)

Data set [2] deals with c-Myc. The experiment in a line: Affinity-based pull down of c-Myc from nuclear lysate with compound-loaded beads, Western blot. It counts as binding. On the procedure: Compound 19 beads (Figure SA) and compound 55 beads (FIG. 5B) were used. Results are expressed as a mean+/−SEM (n=3). Compound 55 beads were formed by a method analogous to the method shown in FIG. 4, where beads were linked to the —NH2 moiety of compound 55 by forming a urea moiety.
In order to explore the mechanism of action of compound 1, preliminary target identification experiments involving affinity-based pull downs were carried out. […] The structure of compound 19 allowed for linking compound 1 to beads (AFFI-GEL 102, Bio-Rad) (FIG. 4).
The linkage site to the bead via the nitrogen atom of the benzimidazolyl moiety was the original site of attachment to the small-molecule microarray and represented the orientation in the original screen.
(In general: Immunoblotting shows a protein as a band on a membrane.)

A short description of data set [3]: Intrinsic clearance (liver microsomes, human), half-life. The format is in vitro ADME. On the technique in general: Liver microsomes are vesicles of endoplasmic reticulum, rich in cytochrome P450 enzymes.
For a further data set, the system named is cancer cell lines. Briefly: Cell viability in cancer cell lines (CELL TITER GLO; CTD cancer cell line profiling). It counts as cell-based. On the procedure:
as §1
FIGS. 3A to 3B show CTD^2 viability data profile of cancer cell lines treated with compound 1. FIG. 3A: dose response curves of 789 cell lines treated with compound 1 for 72 hours. FIG. 3B: relative percent composition of cell lineages and enrichment analysis after treatment with compound 1.
as §2

Data set [4] is described as follows: Aqueous solubility at 37° C. It counts as physicochemical.

Values after ≈ are worked out from the molar mass of the structure shown. Read-outs that look alike come from different tables or passages of the source.

The term IC50 denotes the concentration needed to halve the response being measured. For `COc1cccc2nc(Sc3ccc(/C=C4\SC(=O)N(C(C)C)C4=O)o3)[nH]c12` [Compound 30, (Z)-3-isopropyl-5-((5-((7-methoxy-1H-benzo[d]imidazol-2-yl)thio)furan-2-yl)methylene)thiazolidine-2,4-dione], the IC50 in the data set with Namalwa cells was found to be 72 µM; in the data set on Eu-Myc Arf −/− cells, 11.1 µM; in the data set on c-Myc [1], 1.63 µM; with NCIH1975 cells, 56.3 µM.

Regarding `CC(C)N1C(=O)S/C(=C\c2ccc(Sc3nc4cccc(Cl)c4[nH]3)o2)C1=O` [Compound 28, (Z)-5-(5-(((7-chloro-H-benzo[d]imidazol-2-yl)thio)furan-2-yl)methylene)-3-isopropylthiazolidine-2,4-dione], the IC50 with Namalwa cells amounted to 9.41 µM; in the data set on Eu-Myc Arf −/− cells it was 5.36 µM; in the data set with c-Myc [1], 0.98 µM; in the data set with NCIH1975 cells it was 15.6 µM.

The term solubility denotes the dissolved amount per volume that the medium holds. On to `CC(C)N1C(=O)S/C(=C\c2ccc(Sc3nc4ccccc4[nH]3)o2)C1=O` [Compound 1, (Z)-5-((5-((1H-benzo[d]imidazol-2-yl)thio)furan-2-yl)methylene)-3-isopropylthiazolidine-2,4-dione], for which the IC50 stood at 21.1 µM in the data set on Namalwa cells, 10.2 µM in the data set with Eu-Myc Arf −/− cells, 0.67 µM with c-Myc [1] and 24.9 µM in the data set on NCIH1975 cells. Besides, in the data set with c-Myc [2] (beads linked via nitrogen atom of the benzimidazolyl moiety (compound 55 beads)), the “c-Myc levels pulled down with free compound as soluble competitor” value is listed as “decreased levels of c-Myc”. Also, the “c-Myc pulled down with free compound as soluble competitor” value in the data set on c-Myc [2] (compound 19 beads, nuclear lysate, 5 μM soluble competitor) is recorded as “less c-Myc pulled down”. The “Half-life, intrinsic clearance (liver microsomes, human)” value in data set [3] came out at 22 min. The “effect on cell viability in 5 cancer cell lines” value in the data set on cancer cell lines (3 days, NCIH1975, SNUC5, Namalwa, KLP1, Hela, CELL TITER GLO) was “affected cell viability”. For the same molecule, the “effect on cell viability in a variety of cancer cell lines” value in the data set with cancer cell lines (several cancer cell lines and CTD profiling of about 800 cancer cell lines, 72 hours) is reported as “demonstrated an effect in cell viability”. Moreover, the solubility is < 1 µM in data set [4] (aqueous buffer, PBS, pH 7.4, 37° C., read-out: Solubility at 37° C., aqueous solubility (PBS, pH 7.4)); 80.2 µM (≈ 30.9 µg/mL) in data set [4] (fassgf or other biorelevant, simulated intestinal fluid, 37° C., read-out: Solubility at 37° C., aqueous solubility (simulated intestinal fluid)); 62.7 µM (≈ 24.2 µg/mL) in data set [4] (simulated gastric fluid, 37° C., read-out: Solubility at 37° C., aqueous solubility (simulated gastric fluid)).

`CC(C)N1C(=O)S/C(=C\c2ccc(Sc3nc4ccccc4s3)o2)C1=O` [Compound 3, (Z)-5-((5-(benzo[d]thiazol-2-ylthio)furan-2-yl)methylene)-3-isopropylthiazolidine-2,4-dione]: the IC50 is 31.1 µM in the data set with Namalwa cells, > 50 µM in the data set with Eu-Myc Arf −/− cells, 5.72 µM with c-Myc [1] and > 50 µM in the data set with NCIH1975 cells.
